One assay has as its target T1, K^b sol (Mus musculus, UniProt P01901).
T1 sequence (P01901 22-305 limits assumed): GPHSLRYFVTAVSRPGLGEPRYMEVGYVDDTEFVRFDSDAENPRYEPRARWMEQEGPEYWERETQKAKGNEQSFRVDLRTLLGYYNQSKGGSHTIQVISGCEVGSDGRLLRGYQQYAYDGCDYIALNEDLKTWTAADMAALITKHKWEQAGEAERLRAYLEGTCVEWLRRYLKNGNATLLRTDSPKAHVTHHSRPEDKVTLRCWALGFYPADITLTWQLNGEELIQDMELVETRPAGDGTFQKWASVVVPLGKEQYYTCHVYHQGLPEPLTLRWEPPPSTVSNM
T1 sequence (P01887 21-119 partner): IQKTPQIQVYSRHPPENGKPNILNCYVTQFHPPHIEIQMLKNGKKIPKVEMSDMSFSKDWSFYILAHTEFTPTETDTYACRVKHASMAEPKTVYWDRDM
The assay can be described thus: biochemical. Particulars: read-out: dissociation rate constant.

The subject of a further assay is B3/CD8 T-cell hybridoma. The assay can be described thus: Antigen presentation assay: K^b/β2 Drosophila cells cocultured with T-cell hybridoma B3/CD8, IL-2 by CTLL 3H thymidine incorporation. The assay is classed as cell-based, murine. Particulars: Drosophila cells transfected with K^b/β2; peptide added to medium or protein osmotically loaded. The protocol: Osmotic loading of SC2 and 3T3 cells with ovalbumin protein was carried out as described by Moore, et al., Cell 54: 777-785 (1988). The assay procedure is as follows. In a 96-well dish, 1×10^5 Drosophila cells (with or without peptide/protein loaded) or 3T3 cells were cocultured with 1×10^5 B3/CD8 T-cell hybridoma cells in 200 μl of RPMI media supplemented with 10 fetal bovine serum. After 24 hours of incubation, 100 μl of the supernatant from these cultures was added to 100 μl of RPMI containing 5,000 CTLL cells. The cells were cocultured for 24 hours at 37° C. when 1 μCi of ^3 H thymidine (Amersham) was added. After a further incubation of 15 hours at 37° C., the incorporation of radiolabel into the CTLL cells was determined by scintillation counting.
Assays conducted with murine MHC also verified that the insect cells are capable of loading peptide onto the Class I molecules. Cells expressing as few as 200-500 MHC molecules containing a particular antigen can be detected by a T-cell. […] Upon antigenic stimulation, B3/CD8 produces IL-2, measured by ^3 H thymidine incorporation in IL-2-dependenT-cell line CTLL (Gillis, et al., J. Immunol. 120: 2027 91978)). Thus, by measuring the amount of IL-2 produced, one can assay for T-cell recognition. […]
For orientation: Incorporation of labelled thymidine or its analogues reports DNA synthesis.

For the molecule `CC(C)C[C@H](NC(=O)CNC(=O)[C@H](CCC(N)=O)NC(=O)[C@H](Cc1ccc(O)cc1)NC(=O)[C@@H](NC(=O)[C@H](Cc1ccc(O)cc1)NC(=O)CNC(=O)[C@@H](N)CCCNC(=N)N)C(C)C)C(=O)O` [[^125 I]VSV-8], at K^b sol, the koff was determined as 0.00032 s⁻¹.

B1: ovalbumin (protein, UniProt P01012 2-386, looked up)
Ovalbumin: GSIGAASMEFCFDVFKELKVHHANENIFYCPIAIMSALAMVYLGAKDSTRTQINKVVRFDKLPGFGDSIEAQCGTSVNVHSSLRDILNQITKPNDVYSFSLASRLYAEERYPILPEYLQCVKELYRGGLEPINFQTAADQARELINSWVESQTNGIIRNVLQPSSVDSQTAMVLVNAIVFKGLWEKAFKDEDTQAMPFRVTEQESKPVQMMYQIGLFRVASMASEKMKILELPFASGTMSMLVLLPDEVSGLEQLESIINFEKLTEWTSSNVMEERKIKVYLPRMKMEEKYNLTSVLMAMGITDVFSSSANLSGISSAESLKISQAVHAAHAEINEAGREVVGSAEAGVDAASVSEEFRADHPFLFCIKHIATNAVLFFGRCVSP
notes: ovalbumin (Sigma Chem. Co.) osmotically loaded into the cells
Consider B1, for which the “T-cell recognition (IL-2 production by B3/CD8)” value in the assay with B3/CD8 T-cell hybridoma is on record as “no recognition occurred”.

The values are drawn from patent US6255073A (priority 1998, dated 2001).
